The record followed here is patent publication US12157746B2, “Tetrahydro-1H-pyrazino[2,1-a]isoindolylquinoline compounds for the treatment of autoimmune disease” (F. HOFFMANN-LA ROCHE AG, priority 2018, dated 2024).

The IC20 is the point of the concentration-response curve where the effect stands at 20%.

Series [1] deals with T1, hERG K+ channel (Homo sapiens, UniProt Q12809).
T1 construct: expressed in transfected cells; host or cells: CHO (Chinese hamster ovary) cells, CHOhERG
The series is described as follows: hERG channel inhibition assay. To be noted: patch-clamp (voltage-clamp, whole-cell); for IC50: CHO cells expressing hERG; for IC20: human, CHO cells stably expressing hERG. It counts as cell-based. The procedure: hERG Channel Inhibition Assay
The hERG K^+ channels were cloned in humans and stably expressed in a CHO (Chinese hamster ovary) cell line. CHOhERG cells were used for patch-clamp (voltage-clamp, whole-cell) experiments. Cells were stimulated by a voltage pattern to activate hERG channels and conduct IKhERG currents (rapid delayed outward rectifier potassium current of the hERG channel). After the cells were stabilized for a few minutes, the amplitude and kinetics of IKhERG were recorded at a stimulation frequency of 0.1 Hz (6 bpm). Thereafter, the test compound was added to the preparation at increasing concentrations. For each concentration, an attempt was made to reach a steady-state effect, usually, this was achieved within 3-10 min at which time the next highest concentration was applied. The amplitude and kinetics of IKhERG are recorded in each concentration of the drug which were compared to the control values (taken as 100%). (references: Redfem W S, Carlsson L, Davis A S, Lynch W G, MacKenzie I, Palethorpe S, Siegl P K, Strang I, Sullivan A T, Wallis R, Camm A J, Hammond T G. 2003; Relationships between preclinical cardiac electrophysiology, clinical QT interval prolongation and torsade de pointes for a broad range of drugs: evidence for a provisional safety margin in drug development. Cardiovasc. Res. 58:32-45, Sanguinetti M C, Tristani-Firouzi M. 2006; hERG potassium channels and cardiac arrhythmia. Nature 440:463-469, Webster R, Leishman D, Walker D. 2002; Towards a drug concentration effect relationship for QT prolongation and torsades de pointes. Curr. Opin. Drug Discov. Devel. 5:116-26).
Background: Block of hERG is tested as a sign of cardiac risk.

For series [2], the target named is T2, human TLR8 (Homo sapiens, UniProt Q9NR97).
T2 sequence (Q9NR97 27-1041): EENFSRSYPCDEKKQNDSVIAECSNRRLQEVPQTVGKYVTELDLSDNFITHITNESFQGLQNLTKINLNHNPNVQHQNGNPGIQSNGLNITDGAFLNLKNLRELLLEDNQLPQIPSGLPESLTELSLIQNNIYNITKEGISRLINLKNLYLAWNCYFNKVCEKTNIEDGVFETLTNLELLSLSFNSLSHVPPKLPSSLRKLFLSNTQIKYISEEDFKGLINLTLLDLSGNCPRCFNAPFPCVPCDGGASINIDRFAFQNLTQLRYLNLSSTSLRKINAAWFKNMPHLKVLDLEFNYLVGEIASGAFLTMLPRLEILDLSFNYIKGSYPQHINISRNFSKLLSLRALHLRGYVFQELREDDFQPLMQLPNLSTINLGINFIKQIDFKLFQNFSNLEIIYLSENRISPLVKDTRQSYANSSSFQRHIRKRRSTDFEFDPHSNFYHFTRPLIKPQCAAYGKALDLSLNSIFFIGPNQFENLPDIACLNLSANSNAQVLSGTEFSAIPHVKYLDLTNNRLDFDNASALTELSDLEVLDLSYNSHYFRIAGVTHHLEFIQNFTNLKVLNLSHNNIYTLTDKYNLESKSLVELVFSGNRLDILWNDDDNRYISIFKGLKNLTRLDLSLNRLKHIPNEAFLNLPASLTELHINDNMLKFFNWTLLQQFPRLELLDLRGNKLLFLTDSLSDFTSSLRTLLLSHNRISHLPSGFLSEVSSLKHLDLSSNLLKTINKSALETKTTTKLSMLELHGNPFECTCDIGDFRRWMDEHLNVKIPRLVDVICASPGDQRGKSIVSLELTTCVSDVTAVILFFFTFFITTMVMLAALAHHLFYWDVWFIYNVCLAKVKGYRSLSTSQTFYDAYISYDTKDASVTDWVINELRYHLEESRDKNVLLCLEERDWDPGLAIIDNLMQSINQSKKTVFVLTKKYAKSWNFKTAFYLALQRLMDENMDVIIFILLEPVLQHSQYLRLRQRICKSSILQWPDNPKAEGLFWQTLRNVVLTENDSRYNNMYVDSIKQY
The series is described as follows: HEK293-Blue-hTLR-8 cells assay. It counts as cell-based. Conditions: HEK293-Blue-hTLR8 cells, R848 stimulation, 20 hrs, SEAP reporter; read-out: HEK/hTLR8 IC50. The essentials: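 Antagonism read out in HEK293-Blue-hTLR8 cells carrying an NF-κB/AP-1-driven SEAP reporter, stimulated with R848 (10 μL of 60 uM stock added) alongside serially diluted compound (1% DMSO), 20 h at 37° C. Supernatant SEAP measured with QUANTI-Blue after 2 h at 37° C, absorbance at 620-655 nm.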

Structures are written as SMILES. Where only a bound is given, the exact number is not on record here.

T1 sequence (Q12809 whole entry): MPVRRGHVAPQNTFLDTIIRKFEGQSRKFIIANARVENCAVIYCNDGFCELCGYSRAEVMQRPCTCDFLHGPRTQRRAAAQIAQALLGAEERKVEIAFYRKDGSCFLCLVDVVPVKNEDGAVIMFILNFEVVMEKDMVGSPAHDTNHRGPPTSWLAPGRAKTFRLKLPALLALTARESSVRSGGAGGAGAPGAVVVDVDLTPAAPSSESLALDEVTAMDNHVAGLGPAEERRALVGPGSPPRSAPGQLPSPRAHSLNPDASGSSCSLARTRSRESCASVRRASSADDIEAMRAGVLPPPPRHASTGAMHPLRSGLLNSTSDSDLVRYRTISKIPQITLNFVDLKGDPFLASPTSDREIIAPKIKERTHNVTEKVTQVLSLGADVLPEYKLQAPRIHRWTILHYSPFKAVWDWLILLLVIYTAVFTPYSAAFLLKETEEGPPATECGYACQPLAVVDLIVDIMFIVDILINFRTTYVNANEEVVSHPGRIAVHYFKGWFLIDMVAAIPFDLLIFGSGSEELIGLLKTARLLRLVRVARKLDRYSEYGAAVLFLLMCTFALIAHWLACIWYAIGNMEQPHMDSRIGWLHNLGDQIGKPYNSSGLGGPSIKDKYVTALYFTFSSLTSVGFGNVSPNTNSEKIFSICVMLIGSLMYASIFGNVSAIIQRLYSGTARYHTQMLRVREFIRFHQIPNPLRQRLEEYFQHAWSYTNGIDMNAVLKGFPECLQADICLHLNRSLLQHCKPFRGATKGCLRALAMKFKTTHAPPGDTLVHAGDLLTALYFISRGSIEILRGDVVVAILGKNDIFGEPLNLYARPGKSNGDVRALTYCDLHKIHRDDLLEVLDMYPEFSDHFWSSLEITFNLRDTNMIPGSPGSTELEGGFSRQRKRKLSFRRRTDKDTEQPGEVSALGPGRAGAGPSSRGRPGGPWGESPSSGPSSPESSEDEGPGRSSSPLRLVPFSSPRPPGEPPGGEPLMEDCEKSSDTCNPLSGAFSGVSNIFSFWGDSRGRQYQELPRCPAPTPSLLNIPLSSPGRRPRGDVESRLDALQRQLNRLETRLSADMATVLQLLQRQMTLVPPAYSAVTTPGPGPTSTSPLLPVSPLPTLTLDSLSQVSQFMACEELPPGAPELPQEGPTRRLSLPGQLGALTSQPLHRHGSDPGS

As to `CN[C@@H]1CN(c2ccc3c(c2)CN2[C@H](C)CN(c4ccc(C#N)c5ncccc45)C[C@H]32)C[C@H]1O` [Example 43, 5-[(4R,10bS)-4-methyl-8-[(3R,4R)-3-hydroxy-4-(methylamino)pyrrolidin-1-yl]-3,4,6,10b-tetrahydro-1H-pyrazino[2,1-a]isoindol-2-yl]quinoline-8-carbonitrile], in series [1], the IC50 is more than 20 µM and it took 5.2 µM to reach the 20% level (IC20). Moreover, in series [2], the IC50 is less than 0.0032 µM.
On to `C[C@@H]1CN(c2ccc(C#N)c3ncccc23)C[C@@H]2c3ccc(N4CC(N)C4)cc3CN12` [Example 22, 5-[(4R,10bS)-8-(3-aminoazetidin-1-yl)-4-methyl-3,4,6,10b-tetrahydro-1H-pyrazino[2,1-a]isoindol-2-yl]quinoline-8-carbonitrile], for which, in series [1], the IC50 is more than 20 µM and it took 5 µM to reach the 20% level (IC20). The IC50 in series [2] is less than 0.0032 µM.
As to `C[C@@H]1CN(c2ccc(C#N)c3ncccc23)C[C@@H]2c3ccc(N4CC5(CNC5)C4)cc3CN12` [Example 36, 5-[(4R,10bS)-8-(2,6-diazaspiro[3.3]heptan-2-yl)-4-methyl-3,4,6,10b-tetrahydro-1H-pyrazino[2,1-a]isoindol-2-yl]quinoline-8-carbonitrile], the IC50 is more than 20 µM in series [1] and less than 0.0032 µM in series [2]. In addition, the 20% effect concentration (IC20) in series [1] is more than 10 µM.
The matching figures for `C[C@@H]1CN(c2ccc(C#N)c3ncccc23)C[C@@H]2c3ccc(N4CCN[C@H](CO)C4)cc3CN12` [Example 12, 5-[(4R,10bS)-8-[(3S)-3-(hydroxymethyl)piperazin-1-yl]-4-methyl-3,4,6,10b-tetrahydro-1H-pyrazino[2,1-a]isoindol-2-yl]quinoline-8-carbonitrile]: more than 20 µM, less than 0.0032 µM and more than 10 µM.
`C[C@@H]1CN(c2ccc(C#N)c3ncccc23)C[C@@H]2c3ccc(N4CCOCC(N)C4)cc3CN12` (stereo partly drawn) [Example 54, 5-[(4R,10bS)-8-(6-amino-1,4-oxazepan-4-yl)-4-methyl-3,4,6,10b-tetrahydro-1H-pyrazino[2,1-a]isoindol-2-yl]quinoline-8-carbonitrile]: in series [1], the IC50 is more than 20 µM and the IC20 is more than 10 µM. Besides, the IC50 in series [2] is less than 0.0032 µM.
The matching figures for `C[C@@H]1CN(c2ccc(C#N)c3ncccc23)C[C@@H]2c3ccc(N4CC5(CN(C)C5)C4)cc3CN12` [Example 38, 5-[(4R,10bS)-4-methyl-8-(6-methyl-2,6-diazaspiro[3.3]heptan-2-yl)-3,4,6,10b-tetrahydro-1H-pyrazino[2,1-a]isoindol-2-yl]quinoline-8-carbonitrile]: more than 20 µM, more than 10 µM and less than 0.0003 µM.
The matching figures for `CO[C@H]1CN(c2ccc3c(c2)CN2[C@H](C)CN(c4ccc(C#N)c5ncccc45)C[C@H]32)C[C@@H]1N` (relative stereo) [Example 16, 5-[(4R,10bS)-8-[trans-3-amino-4-methoxy-pyrrolidin-1-yl]-4-methyl-3,4,6,10b-tetrahydro-1H-pyrazino[2,1-a]isoindol-2-yl]quinoline-8-carbonitrile]: more than 20 µM, more than 10 µM and less than 0.0032 µM.
The matching figures for `C[C@@H]1CN(c2ccc(C#N)c3ncccc23)C[C@@H]2c3ccc(N4CC5(CNCCO5)C4)cc3CN12` [Example 35, 5-[(4R,10bS)-4-methyl-8-(5-oxa-2,8-diazaspiro[3.5]nonan-2-yl)-3,4,6,10b-tetrahydro-1H-pyrazino[2,1-a]isoindol-2-yl]quinoline-8-carbonitrile]: more than 20 µM, more than 10 µM and less than 0.0032 µM.
Consider `C[C@@H]1CN(c2ccc(C#N)c3ncccc23)C[C@@H]2c3ccc(N4CC(C)(N)C4)cc3CN12` [Example 39, 5-[(4R,10bS)-8-(3-amino-3-methyl-azetidin-1-yl)-4-methyl-3,4,6,10b-tetrahydro-1H-pyrazino[2,1-a]isoindol-2-yl]quinoline-8-carbonitrile], for which, in series [1], the IC50 is more than 20 µM and the IC20 is more than 10 µM. Also, in series [2], the IC50 was less than 0.0003 µM.
The matching figures for `CO[C@@H]1CN(c2ccc3c(c2)CN2[C@H](C)CN(c4ccc(C#N)n5nccc45)C[C@H]32)C[C@H]1N` [Example 94, 4-[(4R,10bS)-8-[(3R,4R)-3-amino-4-methoxy-pyrrolidin-1-yl]-4-methyl-3,4,6,10b-tetrahydro-1H-pyrazino[2,1-a]isoindol-2-yl]pyrazolo[1,5-a]pyridine-7-carbonitrile]: more than 20 µM, more than 10 µM and 0.0056 µM.
